Laboratory results: patent US20240376163A1, “PEPTIDE FOR INHIBITING CALCINEURIN AND USE THEREOF” (Seoul National University R&DB Foundation, priority 2023, published 2024)

System: Jurkat T cells
Test: mRNA sequencing of activated Jurkat T cells
Format: cell-based, human

Sequence: PEITVTPPTP [CABIN1-L-1-2]
- GPR108 FPKM (P+I): 37.394 FPKM
- GPR183 FPKM (P+I): 4.735 FPKM
- GRAP2 FPKM (P+I): 11.197 FPKM
- GRK5 FPKM (P+I): 8.975 FPKM
- GZMH FPKM (P+I): 13.893 FPKM
- HAPLN3 FPKM (P+I): 58.345 FPKM
- HDC FPKM (P+I): 23.209 FPKM
- HHIP FPKM (P+I): 6.793 FPKM
- HHIP-AS1 FPKM (P+I): 29.854 FPKM
- HIVEP2 FPKM (P+I): 9.184 FPKM
- HSP90B1 FPKM (P+I): 910.415 FPKM
- HSP90B2P FPKM (P+I): 9.619 FPKM
- HSPA5 FPKM (P+I): 449.173 FPKM
- ICAM1 FPKM (P+I): 12.914 FPKM
- ID2 FPKM (P+I): 15.335 FPKM
- IER2 FPKM (P+I): 126.884 FPKM
- IER3 FPKM (P+I): 26.899 FPKM
- IFFO2 FPKM (P+I): 3.163 FPKM
- IFIH1 FPKM (P+I): 12.37 FPKM
- IFNG FPKM (P+I): 8.858 FPKM
- IGLL1 FPKM (P+I): 3.244 FPKM
- IGSF9B FPKM (P+I): 8.992 FPKM
- IL2RA FPKM (P+I): 10.904 FPKM
- IL3 FPKM (P+I): 6.298 FPKM
- IL4I1 FPKM (P+I): 7.279 FPKM
- IL16 FPKM (P+I): 8.304 FPKM
- IL22 FPKM (P+I): 3.136 FPKM
- IL23A FPKM (P+I): 17.874 FPKM
- IMPA2 FPKM (P+I): 2.882 FPKM
- IRF8 FPKM (P+I): 1.914 FPKM
- IRF9 FPKM (P+I): 39.375 FPKM
- ISM1 FPKM (P+I): 3.737 FPKM
- JAK3 FPKM (P+I): 8.871 FPKM
- JUN FPKM (P+I): 3.58 FPKM
- JUNB FPKM (P+I): 56.126 FPKM
- KBTBD11 FPKM (P+I): 2.772 FPKM
- KCNK5 FPKM (P+I): 4.904 FPKM
- KCTD11 FPKM (P+I): 2.303 FPKM
- KIAA0922 FPKM (P+I): 12.911 FPKM
- KIF1B FPKM (P+I): 13.254 FPKM
- KIF3B FPKM (P+I): 14.583 FPKM
- KLF2 FPKM (P+I): 1.375 FPKM
- KSR1 FPKM (P+I): 5.998 FPKM
- LAIR2 FPKM (P+I): 3.695 FPKM
- LAMP3 FPKM (P+I): 9.828 FPKM
- LAX1 FPKM (P+I): 7.578 FPKM
- LDLRAP1 FPKM (P+I): 0.878 FPKM
- LIME1 FPKM (P+I): 11.879 FPKM
- LINC00152 FPKM (P+I): 31.801 FPKM
- LINC00426 FPKM (P+I): 0.675 FPKM
- LINC00528 FPKM (P+I): 5.927 FPKM
- LINC00539 FPKM (P+I): 2.351 FPKM
- LINC00977 FPKM (P+I): 0.266 FPKM
- LOC729603 FPKM (P+I): 3.329 FPKM
- LRRC8B FPKM (P+I): 4.298 FPKM
- LRRC45 FPKM (P+I): 4.264 FPKM
- LYPD3 FPKM (P+I): 2.662 FPKM
- MAP2K3 FPKM (P+I): 43.237 FPKM
- MAP2K6 FPKM (P+I): 0.955 FPKM
- MBOAT2 FPKM (P+I): 3.202 FPKM
- MCM4 FPKM (P+I): 27.291 FPKM
- MCM5 FPKM (P+I): 33.895 FPKM
- METRNL FPKM (P+I): 7.881 FPKM
- MIR221 FPKM (P+I): 10.092 FPKM
- MIR4435-1HG FPKM (P+I): 16.303 FPKM
- MIR6891 FPKM (P+I): 31.815 FPKM
- MMP10 FPKM (P+I): 22.372 FPKM
- MRPL39 FPKM (P+I): 188.834 FPKM
- MYO1D FPKM (P+I): 5.995 FPKM
- MYO1G FPKM (P+I): 65.452 FPKM
- MYO7B FPKM (P+I): 12.661 FPKM
- NAMPT FPKM (P+I): 54.272 FPKM
- NDFIP1 FPKM (P+I): 24.432 FPKM
- NDFIP2 FPKM (P+I): 12.598 FPKM
- NDST3 FPKM (P+I): 5.621 FPKM
- NEIL3 FPKM (P+I): 8.336 FPKM
- NEXN FPKM (P+I): 5.587 FPKM
- NFE2L3 FPKM (P+I): 28.495 FPKM
- NFKBIA FPKM (P+I): 70.837 FPKM
- NFKBID FPKM (P+I): 8.294 FPKM
- NFKBIE FPKM (P+I): 11.793 FPKM
- NINJ1 FPKM (P+I): 54.452 FPKM
- NKD2 FPKM (P+I): 3.105 FPKM
- NKX3-1 FPKM (P+I): 8.412 FPKM
- NLRC5 FPKM (P+I): 37.7 FPKM
- NPY FPKM (P+I): 4.799 FPKM
- NR4A1 FPKM (P+I): 34.85 FPKM
- NR4A2 FPKM (P+I): 0.356 FPKM
- NRROS FPKM (P+I): 26.059 FPKM
- NT5M FPKM (P+I): 1.643 FPKM
- NXN FPKM (P+I): 1.571 FPKM
- OAS3 FPKM (P+I): 18.24 FPKM
- OSBPL3 FPKM (P+I): 23.298 FPKM
- PARP9 FPKM (P+I): 84.386 FPKM
- PARP14 FPKM (P+I): 72.911 FPKM
- PCBP3 FPKM (P+I): 4.642 FPKM
- PDE3B FPKM (P+I): 5.194 FPKM
- PEAK1 FPKM (P+I): 9.633 FPKM
- PELI1 FPKM (P+I): 8.465 FPKM
- PHEX FPKM (P+I): 0.786 FPKM
- PHF7 FPKM (P+I): 3.075 FPKM
- PHLDA1 FPKM (P+I): 52.893 FPKM
- PIDD1 FPKM (P+I): 4.471 FPKM
- PIM3 FPKM (P+I): 72.895 FPKM
- PKIA FPKM (P+I): 18.138 FPKM
- PLAU FPKM (P+I): 82.517 FPKM
- PLEKHO1 FPKM (P+I): 36.376 FPKM
- PLK3 FPKM (P+I): 7.036 FPKM
- PMAIP1 FPKM (P+I): 37.469 FPKM
- PMEPA1 FPKM (P+I): 2.393 FPKM
- PODXL FPKM (P+I): 1.509 FPKM
- POU3F2 FPKM (P+I): 0.696 FPKM
- PPFIBP1 FPKM (P+I): 12.117 FPKM
- PPM1H FPKM (P+I): 4.178 FPKM
- PRKCA FPKM (P+I): 11.132 FPKM
- PTK2 FPKM (P+I): 13.391 FPKM
- PTPN22 FPKM (P+I): 5.119 FPKM
- PTPRE FPKM (P+I): 14.28 FPKM
- PWWP2B FPKM (P+I): 3.446 FPKM
- PXMP2 FPKM (P+I): 7.334 FPKM
- RAG1 FPKM (P+I): 0.265 FPKM
- RAG2 FPKM (P+I): 0.385 FPKM
- RAP1GAP2 FPKM (P+I): 0.285 FPKM
- RAP1GAP FPKM (P+I): 1.799 FPKM
- RDH10 FPKM (P+I): 5.524 FPKM
- REL FPKM (P+I): 5.699 FPKM
- RELB FPKM (P+I): 40.689 FPKM
- RGS3 FPKM (P+I): 2.303 FPKM
- RGS16 FPKM (P+I): 5.595 FPKM
- RMI1 FPKM (P+I): 8.198 FPKM
- RORB FPKM (P+I): 3.292 FPKM
- S1PR1 FPKM (P+I): 0.461 FPKM
- SAMD1 FPKM (P+I): 12.809 FPKM
- SECISBP2L FPKM (P+I): 12.883 FPKM
- SELPLG FPKM (P+I): 3.724 FPKM
- SEMA7A FPKM (P+I): 34.623 FPKM
- SERPINB2 FPKM (P+I): 14.103 FPKM
- SERPINE1 FPKM (P+I): 4.431 FPKM
- SH2B3 FPKM (P+I): 14.803 FPKM
- SH2D5 FPKM (P+I): 3.557 FPKM
- SH3BGRL3 FPKM (P+I): 351.357 FPKM
- SH3RF2 FPKM (P+I): 32.15 FPKM
- SHC4 FPKM (P+I): 0.686 FPKM
- SIT1 FPKM (P+I): 34.287 FPKM
- SIX6 FPKM (P+I): 19.444 FPKM
- SLC2A3 FPKM (P+I): 40.147 FPKM
- SLC2A4RG FPKM (P+I): 2.168 FPKM
- SLC7A5 FPKM (P+I): 226.44 FPKM
- SLC25A45 FPKM (P+I): 2.626 FPKM
- SLCO3A1 FPKM (P+I): 3.095 FPKM
- SLIT1 FPKM (P+I): 2.815 FPKM
- SMIM14 FPKM (P+I): 3.572 FPKM
- SOCS1 FPKM (P+I): 11.547 FPKM
- SOCS3 FPKM (P+I): 9.392 FPKM
- SOSTDC1 FPKM (P+I): 7.34 FPKM
- SPRY2 FPKM (P+I): 17.876 FPKM
- SREBF1 FPKM (P+I): 12.747 FPKM
- ST3GAL6-AS1 FPKM (P+I): 8.479 FPKM
- ST8SIA4 FPKM (P+I): 8.921 FPKM
- STARD4 FPKM (P+I): 16.105 FPKM
- STAT1 FPKM (P+I): 527.58 FPKM
- STAT5A FPKM (P+I): 3.055 FPKM
- STX11 FPKM (P+I): 2.972 FPKM
- SYTL1 FPKM (P+I): 12.555 FPKM
- TBC1D10C FPKM (P+I): 15.764 FPKM
- TBC1D20 FPKM (P+I): 18.427 FPKM
- TBX21 FPKM (P+I): 39.746 FPKM
- THY1 FPKM (P+I): 3.297 FPKM
- TIMP2 FPKM (P+I): 1.952 FPKM
- TM4SF1 FPKM (P+I): 0.907 FPKM
- TM7SF3 FPKM (P+I): 25.052 FPKM
- TMEM229B FPKM (P+I): 7.747 FPKM
- TMTC4 FPKM (P+I): 3.005 FPKM
- TNFRSF4 FPKM (P+I): 11.916 FPKM
- TNFRSF12A FPKM (P+I): 6.523 FPKM
- TNFRSF14 FPKM (P+I): 12.09 FPKM
- TNFSF9 FPKM (P+I): 2.651 FPKM
- TNRC6C FPKM (P+I): 4.485 FPKM
- TNS3 FPKM (P+I): 1.418 FPKM
- TRAF1 FPKM (P+I): 24.962 FPKM
- TRAT1 FPKM (P+I): 5.507 FPKM
- TRIM22 FPKM (P+I): 3.316 FPKM
- TSHR FPKM (P+I): 1.574 FPKM
- TSPAN2 FPKM (P+I): 2.119 FPKM
- TSPAN7 FPKM (P+I): 42.604 FPKM
- TTC28 FPKM (P+I): 1.926 FPKM
- TUBB2A FPKM (P+I): 10.912 FPKM
- TUBB3 FPKM (P+I): 5.423 FPKM
- UHRF1BP1L FPKM (P+I): 7.889 FPKM
- USP30-AS1 FPKM (P+I): 9.017 FPKM
- VANGL1 FPKM (P+I): 8.842 FPKM
- VASH2 FPKM (P+I): 4.245 FPKM
- VGF FPKM (P+I): 54.294 FPKM
- XAF1 FPKM (P+I): 16.914 FPKM
- XBP1 FPKM (P+I): 48.525 FPKM
- XYLB FPKM (P+I): 2.311 FPKM
- YBX2 FPKM (P+I): 1.594 FPKM
- ZC3H12A FPKM (P+I): 17.547 FPKM
- CD27 and CD70 expression (upon T-cell activation): inhibited CD27 and CD70
- RNA levels of representative T-cell activation markers (IL2, IL3, NFATC1, CCL4, CCL20, CXCL8) (upon T-cell activation): reduced RNA levels of representative T-cell activation markers
